The source made the active and inactive calls. No cut-off for these calls is given here.

Test [1] deals with T1, Estrogen receptor (Homo sapiens) (UniProt P03372).
T1 sequence (whole entry): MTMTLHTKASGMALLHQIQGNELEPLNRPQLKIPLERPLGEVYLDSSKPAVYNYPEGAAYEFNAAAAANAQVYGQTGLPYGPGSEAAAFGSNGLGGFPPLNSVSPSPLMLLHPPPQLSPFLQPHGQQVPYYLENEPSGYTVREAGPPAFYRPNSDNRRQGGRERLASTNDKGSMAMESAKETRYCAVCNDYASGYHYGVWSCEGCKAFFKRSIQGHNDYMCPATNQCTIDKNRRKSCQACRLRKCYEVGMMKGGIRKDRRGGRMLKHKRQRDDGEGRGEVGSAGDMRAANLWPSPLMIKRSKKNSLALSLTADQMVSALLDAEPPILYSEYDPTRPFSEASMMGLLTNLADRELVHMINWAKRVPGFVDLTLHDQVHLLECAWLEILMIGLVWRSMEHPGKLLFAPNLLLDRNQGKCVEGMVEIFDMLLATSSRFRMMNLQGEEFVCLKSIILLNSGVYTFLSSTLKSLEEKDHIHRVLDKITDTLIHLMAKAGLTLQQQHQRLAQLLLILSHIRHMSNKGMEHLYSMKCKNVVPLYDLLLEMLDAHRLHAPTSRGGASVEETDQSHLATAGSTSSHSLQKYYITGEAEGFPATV
Kind of test: Displacement of [3H]estradiol from ERalpha isolated from BL21 cells relative to estradiol at 25 degC. It counts as cell-free. (Displacement assays read how much labelled ligand stays bound in the presence of the test substance.)

For a further test, the species on record is Rattus norvegicus. As to the kind of experiment: Estrogenic efficacy in rat by immature rat uterotrophic growth assay. It counts as functional, organism-based.

Turning to `C[C@]12CC[C@@H]3c4ccc(O)cc4CC[C@H]3[C@@H]1CC[C@@]2(O)/C=C/c1cccc(C(F)(F)F)c1`, the RBA in test [1] is 75.

In the case of `C[C@]12CC[C@@H]3c4ccc(O)cc4CC[C@H]3[C@@H]1CC[C@@]2(O)/C=C/c1ccccc1`, in the test filed under Rattus norvegicus, the outcome was inactive. In addition, the RBA in test [1] is 18.

As for `CO[C@H]1C[C@@]2(C)[C@@H](CC[C@@]2(O)/C=C/c2ccc(C(F)(F)F)cc2)[C@@H]2CCc3cc(O)ccc3[C@H]21`, the RBA in test [1] is 5.

In test [1], `CO[C@H]1C[C@@]2(C)[C@@H](CC[C@@]2(O)/C=C/c2cccc(C(F)(F)F)c2)[C@@H]2CCc3cc(O)ccc3[C@H]21` gave an RBA of 65.

`C[C@]12CC[C@@H]3c4ccc(O)cc4CC[C@H]3[C@@H]1CC[C@@]2(O)/C=C/c1ccc(C(F)(F)F)cc1` gave an RBA in test [1] of 8.

With `C[C@]12CC[C@@H]3c4ccc(O)cc4CC[C@H]3[C@@H]1CC[C@@]2(O)/C=C/c1ccccc1C(F)(F)F`, the RBA in test [1] is 223.

Take `CO[C@H]1C[C@@]2(C)[C@@H](CC[C@@]2(O)/C=C/c2ccccc2C(F)(F)F)[C@@H]2CCc3cc(O)ccc3[C@H]21`: in test [1], the RBA was 212.

In the case of `CO[C@H]1C[C@@]2(C)[C@@H](CC[C@@]2(O)/C=C/c2ccccc2)[C@@H]2CCc3cc(O)ccc3[C@H]21`, the RBA in test [1] turned out to be 15.

The record behind these values is ChEMBL document CHEMBL1141399, “Synthesis and evaluation of isomeric (17alpha,20E)-11beta-methoxy-21-(trifluoromethylphenyl)-19-norpregna-1,3,5(10),20-tetraene-3,17beta-diols as ERalpha-hormone binding domain ligands: effect of the methoxy group on receptor binding and uterotrophic growth” (J Med Chem, 2007).
